Measurements: publication PMC6220849, “Mechanistic and structural studies of KDM‐catalysed demethylation of histone 1 isotype 4 at lysine 26” (Febs Letters, 2018)
Square brackets hold non-standard residues; d marks the D form. Ends that are not written are not given here. Lys(Me3) = C[N+](C)(C)CCCC[C@H](N)C(=O)O

Test system: KDM7B (PHF8; KDM7B1–447)
Test: MALDI-TOF MS demethylation activity assay, KDM7B (PHF8)
Format: biochemical, human
Parameters: key to demethylation activity on methylated H1.4 peptide: 🟢: Indicates that clear demethylation activity was observed; 🟡: Indicates that low level demethylation activity was observed (<10% conversion after 1 h); 🔴: Indicates no activity under the stated conditions (1 μM KDM, 10 μM peptide); 🟡*: *Indicates demethylation activity was only observed with 5 μM KDM
Settings: peptide as substrate; MALDI-TOF MS; 1 μM KDM (* = only with 5 μM KDM), 10 μM peptide, 50 mM HEPES pH 7.5, Fe(II) 10 μM, ascorbate 100 μM, 2OG 200 μM, 1 h at 37 °C
Method: Recombinant proteins (1 μM) were incubated with peptides (10 μM, sequences are given in Table S1) in 50 mM HEPES, pH 7.5 with addition of Fe(II) ammonium sulfate (10 μM), sodium ascorbate (100 μM) and 2‐oxoglutaric acid (200 μM). Reactions with KDM3A and KDM7A also contained 1 mM tris(2‐carboxyethyl)phosphine hydrochloride. No enzyme reactions were included as negative controls. Reactions were incubated for 1 h at 37 °C before being quenched with 1 : 1 (v/v) methanol. Analysis was carried out by MALDI‐TOF MS (Bruker, Billerica, MA, USA), with demethylation observed as mass shifts of 14 Da.
Given the activity observed with KDM4E and KDM7A, we decided to investigate the intra‐subfamily conservation of this demethylation activity. The demethylation activity of the other subfamily members (KDM4A‐D and KDM7B) was therefore screened. […] Note that as with H3K9, demethylation of the monomethylated H1.4K26 peptide was only observed with KDM4E, under the stated conditions 24.
N ^ε‐Trimethylated H3K4 binds to the plant homeobox domain of KDM7B, targeting the N ^ε‐dimethyllysine at H3K9 to the catalytic domain, and thus promoting demethylation 29, 44. To test whether similar targeting may occur with H1.4, promoting activity at H1.4K26, an H1.4 peptide was synthesised containing di‐N ^ε‐methyllysine at K26 and tri‐N ^ε‐methyllysine at K21 (i.e. at the equivalent position in the sequence to K4 in the H3 peptide, Fig. 1B, Table S1). Monomethylation at H1.4K21 has previously been observed by proteomic mass spectrometry 45. With the aim of enhancing activity, the enzyme concentration was increased from 1 μM to 5 μM, and time course analyses were conducted with both KDM7A and KDM7B, both with the new peptide (H1.4(18–32)K21me3K26me2) and the H1.4 peptides methylated only at K26 (Fig. 2B). […] Thus, it appears unlikely that N ^ε‐trimethylation at H1.4K21 promotes demethylation at H1.4K26 by KDM7B.

TPVKKKAR[Lys(Me3)]SAGAAK [H1.4(18–32)K26me3, peptide of residues 18–32 of histone H1.4 with N ε-trimethyllysine at K26]
demethylation activity on methylated H1.4 peptide: 🔴
